Assay results reported in US9346809B2 (LEO PHARMA A/S, priority 2009, dated 2016).
pEC50: −log10 of the molar value. Where two headings read alike, the source gives them in different places.

What was measured:
Assay type in all cases: biochemical
[1] = target: T1, TYK2 (aa 871-1187, catalytic domain, GST-tag) (Homo sapiens, UniProt P29597); assay: JAK kinase assay (HTRF, phosphorylation of TK substrate-biotin), TYK2; settings: ATP at Km (13 μM)
T1 construct: JAK1 (aa 850-1154) and TYK2 (aa 871-1187) are expressed with an N-terminally fused GST-tag; GST (N); purchased Carna Biosciences, Inc; host or cells: baculovirus expression system
T1 sequence (P29597 871-1187): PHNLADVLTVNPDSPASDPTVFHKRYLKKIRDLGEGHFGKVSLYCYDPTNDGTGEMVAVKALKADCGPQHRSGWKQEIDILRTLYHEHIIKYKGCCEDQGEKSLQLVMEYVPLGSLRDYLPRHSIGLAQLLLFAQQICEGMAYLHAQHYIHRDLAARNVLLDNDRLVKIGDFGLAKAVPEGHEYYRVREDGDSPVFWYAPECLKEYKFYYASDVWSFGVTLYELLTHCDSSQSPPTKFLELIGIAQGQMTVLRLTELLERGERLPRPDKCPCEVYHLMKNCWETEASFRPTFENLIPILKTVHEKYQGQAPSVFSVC
Procedure, shortened: (§1)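 Compound was mixed with TK substrate-biotin (1 μM final), then kinase plus ATP at its Km was added and left 20-30 min at room temperature. Detection mix with EDTA, Streptavidin-XL665 and STK Ab Cryptate stopped the reaction; after overnight dark incubation, HTRF was read and EC50 derived.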

[2] = target: T2, JAK2 (catalytic domain, His-tag) (Homo sapiens, UniProt O60674); assay: JAK kinase assay (HTRF, phosphorylation of TK substrate-biotin), JAK2; settings: ATP at Km (4 μM)
T2 construct: All four purified enzymes contain only the catalytic domain; His (N); purchased Carna Biosciences, Inc; host or cells: baculovirus expression system
Procedure, shortened: as §1

[3] = target: T3, JAK3 (catalytic domain, His-tag) (Homo sapiens, UniProt P52333); assay: JAK kinase assay (HTRF, phosphorylation of TK substrate-biotin), JAK3; settings: ATP at Km (2 μM)
T3 construct: All four purified enzymes contain only the catalytic domain; His (N); purchased Carna Biosciences, Inc; host or cells: baculovirus expression system
Procedure, shortened: as §1

[4] = target: T4, JAK1 (aa 850-1154, catalytic domain, GST-tag) (Homo sapiens, UniProt P23458); assay: JAK kinase assay (HTRF, phosphorylation of TK substrate-biotin), JAK1; settings: ATP at Km (7 μM)
T4 construct: JAK1 (aa 850-1154) and TYK2 (aa 871-1187) are expressed with an N-terminally fused GST-tag; GST (N); purchased Carna Biosciences, Inc; host or cells: baculovirus expression system
Procedure, shortened: as §1

[5] = HTRF assay, read-out: TYK2 kinase inhibitory activity (EC50 indicator)
[6] = HTRF assay, read-out: JAK2 kinase inhibitory activity (EC50 indicator)
[7] = HTRF assay, read-out: JAK3 kinase inhibitory activity (EC50 indicator)
[8] = HTRF assay, read-out: JAK1 kinase inhibitory activity (EC50 indicator)
[9] = read-out: TYK2 kinase inhibitory activity (EC50 indicator)
[10] = read-out: JAK2 kinase inhibitory activity (EC50 indicator)
[11] = read-out: JAK3 kinase inhibitory activity (EC50 indicator)
[12] = read-out: JAK1 kinase inhibitory activity (EC50 indicator)

T3 sequence (P52333 822-1111 limits assumed): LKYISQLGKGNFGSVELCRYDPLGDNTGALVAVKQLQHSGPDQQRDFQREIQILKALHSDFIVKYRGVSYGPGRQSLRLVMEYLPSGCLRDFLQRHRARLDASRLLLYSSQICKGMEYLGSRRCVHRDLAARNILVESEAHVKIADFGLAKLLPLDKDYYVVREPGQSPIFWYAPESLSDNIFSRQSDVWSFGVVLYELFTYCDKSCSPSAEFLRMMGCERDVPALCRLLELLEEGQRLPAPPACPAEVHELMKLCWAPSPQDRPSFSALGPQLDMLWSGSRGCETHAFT
T2 sequence (O60674 849-1124 limits assumed): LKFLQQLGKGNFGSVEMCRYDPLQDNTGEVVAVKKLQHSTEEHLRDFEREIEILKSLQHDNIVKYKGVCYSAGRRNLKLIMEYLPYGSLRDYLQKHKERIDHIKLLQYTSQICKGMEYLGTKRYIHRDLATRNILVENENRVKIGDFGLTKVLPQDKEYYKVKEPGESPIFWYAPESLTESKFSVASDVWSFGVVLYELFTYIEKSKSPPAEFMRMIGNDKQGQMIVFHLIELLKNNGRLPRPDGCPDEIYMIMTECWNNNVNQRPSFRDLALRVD
T4 sequence (P23458 850-1154): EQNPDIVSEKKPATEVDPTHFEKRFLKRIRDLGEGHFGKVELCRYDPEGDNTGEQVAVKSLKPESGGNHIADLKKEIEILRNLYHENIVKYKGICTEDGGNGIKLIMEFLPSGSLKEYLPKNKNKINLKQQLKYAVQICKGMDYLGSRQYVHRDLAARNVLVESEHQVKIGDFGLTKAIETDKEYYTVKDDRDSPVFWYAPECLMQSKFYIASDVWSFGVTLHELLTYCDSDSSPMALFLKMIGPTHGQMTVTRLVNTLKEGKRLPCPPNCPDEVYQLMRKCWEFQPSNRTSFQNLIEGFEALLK

## CC(=O)Nc1ccc(C(=O)N2[C@@H]3CC[C@@H]2CN(c2ncnc4[nH]ccc24)C3)cc1 [Example 354, N-{4-[3-(7H-Pyrrolo[2,3-d]pyrimidin-4-yl)-3,8-diaza-bicyclo[3.2.1]octane-8-carbonyl]-phenyl}-acetamide]
[1]; [5]
  pEC50: < 6.30
[2]; [6]
  pEC50: > 7.00
[3]; [7]
  pEC50: 6.30 to 7.00
[4]; [8]
  pEC50: > 7.00

## CC1CN(C(=O)Cc2cccc(C#N)c2)C2(CC2)CN1c1ncnc2[nH]ccc12 (stereo not shown) [Example 146, 3-{2-[6-Methyl-7-(7H-pyrrolo[2,3-d]pyrimidin-4-yl)-4,7-diaza-spiro[2.5]oct-4-yl]-2-oxo-ethyl}-benzonitrile]
[1]; [9]
  pEC50: < 6.30
[2]; [10]
  pEC50: > 7.00
[3]; [11]
  pEC50: 6.30 to 7.00
[4]; [12]
  pEC50: 6.30 to 7.00

## Cc1c[nH]c2ncnc(N3CCN(C(=O)Cc4ccc(C(F)(F)F)cc4)C4(CC4)C3)c12 [Example 331, 1-[7-(5-Methyl-7H-pyrrolo[2,3-d]pyrimidin-4-yl)-4,7-diaza-spiro[2.5]oct-4-yl]-2-(4-trifluoromethyl-phenyl)-ethanone]
[1]; [5]
  pEC50: < 6.30
[2]; [6]
  pEC50: 6.30 to 7.00
[3]; [7]
  pEC50: > 7.00
[4]; [8]
  pEC50: 6.30 to 7.00

## N#Cc1ccc(C(F)(F)C(=O)N2[C@@H]3CC[C@H]2CN(c2ncnc4[nH]ccc24)C3)cc1 [Example 65, 4-{1,1-Difluoro-2-oxo-2-[3-(7H-pyrrolo[2,3-d]pyrimidin-4-yl)-3,8-diaza-bicyclo[3.2.1]oct-8-yl]-ethyl}-benzonitrile]
[1]; [9]
  pEC50: < 6.30
[2]; [10]
  pEC50: > 7.00
[3]; [11]
  pEC50: 6.30 to 7.00
[4]; [12]
  pEC50: 6.30 to 7.00

## Cc1cc(C(=O)N2CCN(c3ncnc4[nH]ccc34)CC23CC3)ccc1S(N)(=O)=O [Example 380, 2-Methyl-4-[7-(7H-pyrrolo[2,3-d]pyrimidin-4-yl)-4,7-diaza-spiro[2.5]octane-4-carbonyl]-benzenesulfonamide]
[1]; [5]
  pEC50: > 7.00
[2]; [6]
  pEC50: > 7.00
[3]; [7]
  pEC50: > 7.00
[4]; [8]
  pEC50: > 7.00

## CN(CC#N)C(=O)C1(C(=O)N2CCN(c3ncnc4[nH]ccc34)CC23CC3)CC1 [Example 86, 1-[7-(7H-Pyrrolo[2,3-d]pyrimidin-4-yl)-4,7-diaza-spiro[2.5]octane-4-carbonyl]-cyclopropanecarboxylic acid cyanomethyl-methyl-amide]
[1]; [9]
  pEC50: < 6.30
[2]; [10]
  pEC50: 6.30 to 7.00
[3]; [11]
  pEC50: < 6.30
[4]; [12]
  pEC50: < 6.30

## CC(C)CNC(=S)N1[C@@H]2CC[C@H]1CN(c1ncnc3[nH]ccc13)C2 [Example 10, 3-(7H-Pyrrolo[2,3-d]pyrimidin-4-yl)-3,8-diaza-bicyclo[3.2.1]octane-8-carbothioic acid isobutyl-amide]
[1]; [9]
  pEC50: < 6.30
[2]; [10]
  pEC50: 6.30 to 7.00
[3]; [11]
  pEC50: < 6.30
[4]; [12]
  pEC50: 6.30 to 7.00

## N#Cc1ccccc1C(=O)N1[C@@H]2CC[C@@H]1CN(c1ncnc3[nH]ccc13)C2 [Example 249, 2-[3-(7H-Pyrrolo[2,3-d]pyrimidin-4-yl)-3,8-diaza-bicyclo[3.2.1]octane-8-carbonyl]-benzonitrile]
[1]; [5]
  pEC50: < 6.30
[2]; [6]
  pEC50: > 7.00
[3]; [7]
  pEC50: 6.30 to 7.00
[4]; [8]
  pEC50: 6.30 to 7.00

## Cn1cc(S(N)(=O)=O)cc1C(=O)N1CCN(c2ncnc3[nH]ccc23)CC12CC2 [Example 188, 1-Methyl-5-[7-(7H-pyrrolo[2,3-d]pyrimidin-4-yl)-4,7-diaza-spiro[2.5]octane-4-carbonyl]-1H-pyrrole-3-sulfonic acid amide]
[1]; [9]
  pEC50: > 7.00
[2]; [10]
  pEC50: > 7.00
[3]; [11]
  pEC50: > 7.00
[4]; [12]
  pEC50: > 7.00

## CS(=O)(=O)c1cccc(CC(=O)N2CCN(c3ncnc4[nH]ccc34)CC23CC3)c1 [Example 101, 2-(3-Methanesulfonyl-phenyl)-1-[7-(7H-pyrrolo[2,3-d]pyrimidin-4-yl)-4,7-diaza-spiro[2.5]oct-4-yl]-ethanone]
[1]; [9]
  pEC50: < 6.30
[2]; [10]
  pEC50: 6.30 to 7.00
[3]; [11]
  pEC50: 6.30 to 7.00
[4]; [12]
  pEC50: 6.30 to 7.00

## O=C(c1cccc(O)n1)N1CCN(c2ncnc3[nH]ccc23)CC12CC2 [Example 166, (6-Hydroxy-pyridin-2-yl)-[7-(7H-pyrrolo[2,3-d]pyrimidin-4-yl)-4,7-diaza-spiro[2.5]oct-4-yl]-methanone]
[1]; [9]
  pEC50: < 6.30
[2]; [10]
  pEC50: > 7.00
[3]; [11]
  pEC50: 6.30 to 7.00
[4]; [12]
  pEC50: > 7.00

## NS(=O)(=O)c1ccc(C(=O)N2C3CCC2CN(c2ncnc4[nH]ccc24)C3)o1 [Example 203]
[1]; [9]
  pEC50: < 6.30
[2]; [10]
  pEC50: > 7.00
[3]; [11]
  pEC50: > 7.00
[4]; [12]
  pEC50: > 7.00

## COC(=O)c1cc2c(N3CCN(C(=O)Cc4ccc(C(F)(F)F)cc4)C4(CC4)C3)ncnc2[nH]1 [Example 338, 4-{4-[2-(4-Trifluoromethyl-phenyl)-acetyl]-4,7-diaza-spiro[2.5]oct-7-yl}-7H-pyrrolo[2,3-d]pyrimidine-6-carboxylic acid methyl ester]
[1]; [5]
  pEC50: < 6.30
[2]; [6]
  pEC50: < 6.30
[3]; [7]
  pEC50: < 6.30
[4]; [8]
  pEC50: < 6.30

## N#Cc1csc(C(=O)N2CCN(c3ncnc4[nH]ccc34)CC23CC3)c1 [Example 60, 5-[7-(7H-Pyrrolo[2,3-d]pyrimidin-4-yl)-4,7-diaza-spiro[2.5]octane-4-carbonyl]-thiophene-3-carbonitrile]
[1]; [9]
  pEC50: > 7.00
[2]; [10]
  pEC50: > 7.00
[3]; [11]
  pEC50: > 7.00
[4]; [12]
  pEC50: > 7.00

## CCC(=O)N1[C@@H]2CC[C@H]1CN(c1ncnc3[nH]ccc13)C2 [Example 30, 1-[3-(7H-Pyrrolo[2,3-d]pyrimidin-4-yl)-3,8-diazabicyclo[3.2.1]oct-8-yl]propan-1-one]
[1]; [9]
  pEC50: < 6.30
[2]; [10]
  pEC50: 6.30 to 7.00
[3]; [11]
  pEC50: < 6.30
[4]; [12]
  pEC50: 6.30 to 7.00

## O=C(CC(F)(F)F)N1[C@@H]2CC[C@H]1CN(c1ncnc3[nH]ccc13)C2 [Example 40, 3,3,3-Trifluoro-1-[3-(7H-pyrrolo[2,3-d]pyrimidin-4-yl)-3,8-diaza-bicyclo[3.2.1]oct-8-yl]propan-1-one]
[1]; [9]
  pEC50: < 6.30
[2]; [10]
  pEC50: 6.30 to 7.00
[3]; [11]
  pEC50: < 6.30
[4]; [12]
  pEC50: 6.30 to 7.00

## N#Cc1ccc2[nH]c(C(=O)N3CCN(c4ncnc5[nH]ccc45)CC34CC4)cc2c1 [Example 217, 2-[7-(7H-Pyrrolo[2,3-d]pyrimidin-4-yl)-4,7-diaza-spiro[2.5]octane-4-carbonyl]-1H-indole-5-carbonitrile]
[1]; [5]
  pEC50: 6.30 to 7.00
[2]; [6]
  pEC50: > 7.00
[3]; [7]
  pEC50: > 7.00
[4]; [8]
  pEC50: > 7.00

## S=C(NCc1ccccc1)N1CCN(c2ncnc3[nH]ccc23)CC12CC2 [Example 438, 7-(7H-Pyrrolo[2,3-d]pyrimidin-4-yl)-4,7-diaza-spiro[2.5]octane-4-carbothioic acid benzylamide]
[1]; HTRF assay, read-out: TYK2 kinase inhibitory activity (EC50)
  pEC50: 6.30 to 7.00
[2]; HTRF assay, read-out: JAK2 kinase inhibitory activity (EC50)
  pEC50: > 7.00
[3]; HTRF assay, read-out: JAK3 kinase inhibitory activity (EC50)
  pEC50: 6.30 to 7.00
[4]; HTRF assay, read-out: JAK1 kinase inhibitory activity (EC50)
  pEC50: > 7.00

## COc1cnc2[nH]ccc2c1N1CCN(C(=O)Cc2cccc(C#N)c2)C2(CC2)C1 [Example 294, 3-{2-[7-(5-Methoxy-1H-pyrrolo[2,3-b]pyridin-4-yl)-4,7-diaza-spiro[2.5]oct-4-yl]-2-oxo-ethyl}-benzonitrile]
[1]; [5]
  pEC50: < 6.30
[2]; [6]
  pEC50: 6.30 to 7.00
[3]; [7]
  pEC50: 6.30 to 7.00
[4]; [8]
  pEC50: 6.30 to 7.00

## N#Cc1ccc(CC(=O)N2CCN(c3nc(NC(=O)c4ccccc4)nc4[nH]ccc34)CC23CC3)cc1 [Example 98, N-(4-{4-[2-(4-Cyano-phenyl)-acetyl]-4,7-diaza-spiro[2.5]oct-7-yl}-7H-pyrrolo[2,3-d]pyrimidin-2-yl)-benzamide]
[1]; [9]
  pEC50: < 6.30
[2]; [10]
  pEC50: < 6.30
[3]; [11]
  pEC50: < 6.30
[4]; [12]
  pEC50: < 6.30

## Cc1ccc2sc(C(=O)N3CCN(c4ccnc5[nH]ccc45)CC34CC4)cc2c1 [Example 234, (5-Methyl-benzo[b]thiophen-2-yl)-[7-(1H-pyrrolo[2,3-b]pyridin-4-yl)-4,7-diaza-spiro[2.5]oct-4-yl]-methanone]
[1]; [5]
  pEC50: < 6.30
[2]; [6]
  pEC50: 6.30 to 7.00
[3]; [7]
  pEC50: < 6.30
[4]; [8]
  pEC50: 6.30 to 7.00

## O=C(Cc1ccc(F)cc1)N1CCN(c2ncnc3[nH]cc(Cl)c23)CC12CC2 [Example 320, 1-[7-(5-Chloro-7H-pyrrolo[2,3-d]pyrimidin-4-yl)-4,7-diaza-spiro[2.5]oct-4-yl]-2-(4-fluoro-phenyl)-ethanone]
[1]; [5]
  pEC50: < 6.30
[2]; [6]
  pEC50: > 7.00
[3]; [7]
  pEC50: 6.30 to 7.00
[4]; [8]
  pEC50: 6.30 to 7.00
